Test results: US12655142B2 (Merck Patent GmbH, priority 2019, dated 2026)
Blank lines part the entries; values can stand above or below the molecule they belong to.

Assays:
[1] = Determination of Efflux-Ratio (ER) in Caco-2 cells; conditions: human, Caco-2, pH 7.4
[2] = molecular target: T1, c-Kit(V654A) (Homo sapiens, UniProt P10721, V654A); experiment: c-Kit(V654A) assay (33P-ATP filter binding kinase assay); assay type: biochemical; conditions: recombinant human c-Kit aa 544-end V654A, ATP 200 μM
T1 construct: recombinant human c-Kit, amino acids 544-end containing the V654A mutation; GST (N)
Outline: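 Radiometric filter-binding read-out: substrate 33P incorporation counted by scintillation after P30 filtermat washes in 75 mM phosphoric acid and methanol. Enzyme: N-GST recombinant human c-Kit aa 544-end carrying V654A.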

[3] = molecular target: T2, GIST430/654 cell line expressing mutated constitutively active cKIT receptor tyrosine kinase (Δ560-576 deletion and V654A point mutation) (Homo sapiens, UniProt P10721, DEL560-576/V654A); experiment: Cellular cKIT autophosphorylation (phospho-Y307-cKIT, Luminex bead assay) in GIST430/654 cells; assay type: cell-based; conditions: compounds 45 min, read-out: GIST 430/654 IC50
T2 construct: endogenous in cells; host or cells: GIST430/654 cells
Outline: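 GIST430 (Δ560-576) and imatinib-resistant GIST430/654 (plus V654A; grown with 100 nM imatinib) cells were plated in IMDM/15% FCS and treated next day with serially diluted compound for 45 min. Lysates were captured on anti-total-cKIT Luminex beads overnight at 4 °C and probed for phospho-Y307. IC50 was taken from percent of 0.3% DMSO control.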

T1 sequence (P10721 544-976 V654A): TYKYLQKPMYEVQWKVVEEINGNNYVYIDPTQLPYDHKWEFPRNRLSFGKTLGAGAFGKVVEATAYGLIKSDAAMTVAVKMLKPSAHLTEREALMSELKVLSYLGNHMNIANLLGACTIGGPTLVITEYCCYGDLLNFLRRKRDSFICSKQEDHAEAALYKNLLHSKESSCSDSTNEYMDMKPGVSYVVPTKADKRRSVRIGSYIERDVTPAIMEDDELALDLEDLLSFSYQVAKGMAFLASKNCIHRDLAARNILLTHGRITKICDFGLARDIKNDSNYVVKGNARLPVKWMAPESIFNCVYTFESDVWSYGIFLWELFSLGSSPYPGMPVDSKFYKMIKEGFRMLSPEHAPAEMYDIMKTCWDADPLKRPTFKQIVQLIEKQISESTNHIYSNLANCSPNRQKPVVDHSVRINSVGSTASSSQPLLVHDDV
T2 sequence (P10721 with tags, fused parts or gaps DEL560-576/V654A): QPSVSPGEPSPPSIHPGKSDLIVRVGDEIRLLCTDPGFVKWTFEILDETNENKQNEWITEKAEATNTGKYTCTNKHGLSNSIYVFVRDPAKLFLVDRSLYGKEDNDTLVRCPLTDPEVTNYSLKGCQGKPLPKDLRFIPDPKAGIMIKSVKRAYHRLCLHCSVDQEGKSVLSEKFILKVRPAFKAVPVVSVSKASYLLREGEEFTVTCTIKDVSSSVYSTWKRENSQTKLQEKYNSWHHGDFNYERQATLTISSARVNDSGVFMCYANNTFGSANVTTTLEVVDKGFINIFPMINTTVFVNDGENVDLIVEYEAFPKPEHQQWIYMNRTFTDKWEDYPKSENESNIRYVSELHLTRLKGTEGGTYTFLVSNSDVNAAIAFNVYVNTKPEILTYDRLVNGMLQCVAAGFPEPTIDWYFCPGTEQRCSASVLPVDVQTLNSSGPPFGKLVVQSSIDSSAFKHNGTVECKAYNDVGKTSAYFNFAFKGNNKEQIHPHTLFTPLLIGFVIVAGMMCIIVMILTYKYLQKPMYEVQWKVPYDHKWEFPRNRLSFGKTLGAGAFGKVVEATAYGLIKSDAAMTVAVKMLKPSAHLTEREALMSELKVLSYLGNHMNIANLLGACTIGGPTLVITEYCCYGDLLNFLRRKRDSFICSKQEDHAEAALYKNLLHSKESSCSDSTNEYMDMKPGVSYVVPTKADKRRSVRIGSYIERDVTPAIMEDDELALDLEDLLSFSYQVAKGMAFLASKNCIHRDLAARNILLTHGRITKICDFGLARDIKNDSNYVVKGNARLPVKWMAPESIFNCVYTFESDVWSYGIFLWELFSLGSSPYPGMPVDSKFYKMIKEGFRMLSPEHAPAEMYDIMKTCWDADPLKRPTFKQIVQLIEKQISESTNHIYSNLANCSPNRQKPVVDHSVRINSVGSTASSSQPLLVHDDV

Structure (SMILES): COCCn1cc(-c2ccc(CNc3cc(-c4cnc5cc(OC)ccn45)ncn3)cc2)cn1 [A19, {4-[1-(2-methoxy-ethyl)-1H-pyrazol-4-yl]-benzyl}-[6-(7-methoxy-imidazo[1,2-a]pyridin-3-yl)-pyrimidin-4-yl]-amine]
- efflux ratio at 2 h, 1 μM [1]: < 15
- IC50 [2]: 9.4 nM
- IC50 [3]: 71 nM

Structure (SMILES): COc1ccn2c(-c3cc(NCc4ccc(-c5cnn(CC6CC6)c5)cc4)ncn3)cnc2c1 [A21, [4-(1-cyclopropylmethyl-1H-pyrazol-4-yl)-benzyl]-[6-(7-methoxy-imidazo[1,2-a]pyridin-3-yl)-pyrimidin-4-yl]-amine]
- efflux ratio at 2 h, 1 μM [1]: < 15
- IC50 [2]: 4.8 nM
- IC50 [3]: 58 nM

Structure (SMILES): COc1ccn2c(-c3cc(NCc4ccc(-c5cnn(C)n5)cc4)ncn3)cnc2c1 [A32, [6-(7-methoxy-imidazo[1,2-a]pyridin-3-yl)-pyrimidin-4-yl]-[4-(2-methyl-2H-[1,2,3]triazol-4-yl)-benzyl]-amine]
- efflux ratio at 2 h, 1 μM [1]: < 15
- IC50 [2]: 4.4 nM
- IC50 [3]: 78 nM

Structure (SMILES): COc1ccn2c(-c3cc(NCc4ccc(-c5cnn(C)c5)s4)ncn3)cnc2c1 [A36, 6-{7-methoxyimidazo[1,2-a]pyridin-3-yl}-N-{[5-(1-methyl-1H-pyrazol-4-yl)thiophen-2-yl]methyl}pyrimidin-4-amine]
- efflux ratio at 2 h, 1 μM [1]: < 15
- IC50 [2]: 4.2 nM
- IC50 [3]: 140 nM

Structure (SMILES): COCCn1ncc(-c2ccc(CNc3cc(-c4cnc5cc(OC)ccn45)ncn3)cc2)n1 [A46, N-({4-[2-(2-methoxyethyl)-2H-1,2,3-triazol-4-yl]phenyl}methyl)-6-{7-methoxyimidazo[1,2-a]pyridin-3-yl}pyrimidin-4-amine]
- efflux ratio at 2 h, 1 μM [1]: < 15
- IC50 [2]: 6.4 nM
- IC50 [3]: 95 nM

Structure (SMILES): Cn1cc(-c2ccc(CNc3cc(-c4cnc5cc(OCCCN6CCOCC6)ccn45)ncn3)cc2)cn1 [A74, [4-(1-methyl-1H-pyrazol-4-yl)-benzyl]-{6-[7-(3-morpholin-4-yl-propoxy)-imidazo[1,2-a]pyridin-3-yl]-pyrimidin-4-yl}-amine]
- efflux ratio at 2 h, 1 μM [1]: < 15
- IC50 [2]: 4.8 nM
- IC50 [3]: 49 nM

Structure (SMILES): CN1CCC(COc2ccn3c(-c4cc(NCc5ccc(-n6ccnn6)cc5)ncn4)cnc3c2)CC1 [A80, {6-[7-(1-methyl-piperidin-4-ylmethoxy)-imidazo[1,2-a]pyridin-3-yl]-pyrimidin-4-yl}-(4-[1,2,3]triazol-1-yl-benzyl)-amine]
- efflux ratio at 2 h, 1 μM [1]: > 50
- IC50 [2]: 3.4 nM
- IC50 [3]: 38 nM

Structure (SMILES): Cn1cc(-c2ccc(CNc3cc(-c4cnc5cc(OCC(C)(C)N)ccn45)ncn3)cc2)cn1 [A104, {6-[7-(2-amino-2-methyl-propoxy)-imidazo[1,2-a]pyridin-3-yl]-pyrimidin-4-yl}-[4-(1-methyl-1H-pyrazol-4-yl)-benzyl]-amine]
- efflux ratio at 2 h, 1 μM [1]: 15 to 50
- IC50 [2]: 7 nM
- IC50 [3]: 170 nM

Structure (SMILES): Cn1ncc(-c2ccc(CNc3cc(-c4cnc5cc(OCCCN6CCOCC6)ccn45)ncn3)cc2)n1 [A133]
- efflux ratio at 2 h, 1 μM [1]: < 15
- IC50 [2]: 2.6 nM
- IC50 [3]: 30 nM

Structure (SMILES): Cn1cc(-c2ccc(CNc3cc(-c4cnc5cc(OCCN6CC(F)C6)ccn45)ncn3)cc2)cn1 [A140, 6-{7-[2-(3-fluoroazetidin-1-yl)ethoxy]imidazo[1,2-a]pyridin-3-yl}-N-{[4-(1-methyl-1H-pyrazol-4-yl)phenyl]methyl}pyrimidin-4-amine]
- efflux ratio at 2 h, 1 μM [1]: < 15
- IC50 [2]: 11 nM
- IC50 [3]: 26 nM

Structure (SMILES): CN1CCN(CCOc2ccn3c(-c4cc(NCc5ccc(-c6cnn(C)c6)cc5)ncn4)cnc3c2)C(=O)C1 [A141, 4-methyl-1-[2-({3-[6-({[4-(1-methyl-1H-pyrazol-4-yl)phenyl]methyl}amino)pyrimidin-4-yl]imidazo[1,2-a]pyridin-7-yl}oxy)ethyl]piperazin-2-one]
- efflux ratio at 2 h, 1 μM [1]: > 50
- IC50 [2]: 15 nM
- IC50 [3]: 85 nM

More lines, now with the values ahead:

- efflux ratio at 2 h, 1 μM [1]: < 15
- IC50 [2]: 9.7 nM
- IC50 [3]: 110 nM
Structure (SMILES): COCCOc1ccn2c(-c3cc(NCc4ccc(-c5cnn6c5CCC6)cc4)ncn3)cnc2c1 [A17, 6-[7-(2-methoxyethoxy)imidazo[1,2-a]pyridin-3-yl]-N-[(4-{4H,5H,6H-pyrrolo[1,2-b]pyrazol-3-yl}phenyl)methyl]pyrimidin-4-amine]

- efflux ratio at 2 h, 1 μM [1]: < 15
- IC50 [2]: 8.6 nM
- IC50 [3]: 130 nM
Structure (SMILES): COc1ccn2c(-c3cc(NCc4ccc(-c5noc(C)n5)cc4)ncn3)cnc2c1 [A26, 6-{7-methoxyimidazo[1,2-a]pyridin-3-yl}-N-{[4-(5-methyl-1,2,4-oxadiazol-3-yl)phenyl]methyl}pyrimidin-4-amine]

- efflux ratio at 2 h, 1 μM [1]: < 15
- IC50 [2]: 1.6 nM
- IC50 [3]: 53 nM
Structure (SMILES): COc1ccn2c(-c3cc(NCc4ccc(-c5cocn5)cc4)ncn3)cnc2c1 [A51, [6-(7-methoxy-imidazo[1,2-a]pyridin-3-yl)-pyrimidin-4-yl]-(4-oxazol-4-yl-benzyl)-amine]

- efflux ratio at 2 h, 1 μM [1]: < 15
- IC50 [2]: 6.5 nM
- IC50 [3]: 34 nM
Structure (SMILES): CN1CCN(CCOc2ccn3c(-c4cc(NCc5ccc(-c6cnn(C)c6)cc5)ncn4)cnc3c2)CC1 [A61, (6-{7-[2-(4-methyl-piperazin-1-yl)-ethoxy]-imidazo[1,2-a]pyridin-3-yl}-pyrimidin-4-yl)-[4-(1-methyl-1H-pyrazol-4-yl)-benzyl]-amine]

- efflux ratio at 2 h, 1 μM [1]: < 15
- IC50 [2]: 12 nM
- IC50 [3]: 84 nM
Structure (SMILES): CN1CCC(Oc2ccn3c(-c4cc(NCc5ccc(-c6cnn(C)c6)cc5)ncn4)cnc3c2)CC1 [A63, {6-[7-(1-methyl-piperidin-4-yloxy)-imidazo[1,2-a]pyridin-3-yl]-pyrimidin-4-yl}-[4-(1-methyl-1H-pyrazol-4-yl)-benzyl]-amine]

- efflux ratio at 2 h, 1 μM [1]: < 15
- IC50 [2]: 6.7 nM
- IC50 [3]: 84 nM
Structure (SMILES): Cn1cc(-c2ccc(CNc3cc(-c4cnc5cc(OCC(C)(C)O)ccn45)ncn3)cc2)cn1 [A64, 2-methyl-1-(3-{6-[4-(1-methyl-1H-pyrazol-4-yl)-benzylamino]-pyrimidin-4-yl}-imidazo[1,2-a]pyridin-7-yloxy)-propan-2-ol]

- efflux ratio at 2 h, 1 μM [1]: < 15
- IC50 [2]: 11 nM
- IC50 [3]: 46 nM
Structure (SMILES): Cn1cc(-c2ccc(CNc3cc(-c4cnc5cc(OCCN6CCN(C7COC7)CC6)ccn45)ncn3)cc2)cn1 [A65, [4-(1-methyl-1H-pyrazol-4-yl)-benzyl]-(6-{7-[2-(4-oxetan-3-yl-piperazin-1-yl)-ethoxy]-imidazo[1,2-a]pyridin-3-yl}-pyrimidin-4-yl)-amine]

- efflux ratio at 2 h, 1 μM [1]: > 50
- IC50 [2]: 4.8 nM
- IC50 [3]: 65 nM
Structure (SMILES): CN1CCN(CCOc2ccn3c(-c4cc(NCc5ccc(-n6ccnn6)cc5)ncn4)cnc3c2)CC1 [A67, (6-{7-[2-(4-methyl-piperazin-1-yl)-ethoxy]-imidazo[1,2-a]pyridin-3-yl}-pyrimidin-4-yl)-(4-[1,2,3]triazol-1-yl-benzyl)-amine]

- efflux ratio at 2 h, 1 μM [1]: < 15
- IC50 [2]: 4.6 nM
- IC50 [3]: 45 nM
Structure (SMILES): COCCOc1ccn2c(-c3cc(NCc4ccc(-c5cnn(C)n5)cc4)ncn3)cnc2c1 [A71, {6-[7-(2-methoxy-ethoxy)-imidazo[1,2-a]pyridin-3-yl]-pyrimidin-4-yl}-[4-(2-methyl-2H-[1,2,3]triazol-4-yl)-benzyl]-amine]

- efflux ratio at 2 h, 1 μM [1]: < 15
- IC50 [2]: 14 nM
- IC50 [3]: 40 nM
Structure (SMILES): Cn1cc(-c2ccc(CNc3cc(-c4cnc5cc(OCCN6CCC(F)(F)C6)ccn45)ncn3)cc2)cn1 [A77, 6-{7-[2-(3,3-difluoropyrrolidin-1-yl)ethoxy]imidazo[1,2-a]pyridin-3-yl}-N-{[4-(1-methyl-1H-pyrazol-4-yl)phenyl]methyl}pyrimidin-4-amine]

- efflux ratio at 2 h, 1 μM [1]: < 15
- IC50 [2]: 8.6 nM
- IC50 [3]: 76 nM
Structure (SMILES): Cn1cc(-c2ccc(CNc3cc(-c4cnc5cc(OCC(C)(C)CN6CCCC6)ccn45)ncn3)cc2)cn1 [A91, {6-[7-(2,2-dimethyl-3-pyrrolidin-1-yl-propoxy)-imidazo[1,2-a]pyridin-3-yl]-pyrimidin-4-yl}-[4-(1-methyl-1H-pyrazol-4-yl)-benzyl]-amine]

- efflux ratio at 2 h, 1 μM [1]: 15 to 50
- IC50 [2]: 9.4 nM
- IC50 [3]: 86 nM
Structure (SMILES): Cn1cc(-c2ccc(CNc3cc(-c4cnc5cc(OCCN6CC7(COC7)C6)ccn45)ncn3)cc2)cn1 [A114, [4-(1-methyl-1H-pyrazol-4-yl)-benzyl]-(6-{7-[2-(2-oxa-6-aza-spiro[3.3]hept-6-yl)-ethoxy]-imidazo[1,2-a]pyridin-3-yl}-pyrimidin-4-yl)-amine]

- efflux ratio at 2 h, 1 μM [1]: < 15
- IC50 [2]: 7.5 nM
- IC50 [3]: 69 nM
Structure (SMILES): Cn1cc(-c2ccc(CNc3cc(-c4cnc5cc(OCCCO)ccn45)ncn3)cc2)cn1 [A131, 3-(3-{6-[4-(1-methyl-1H-pyrazol-4-yl)-benzylamino]-pyrimidin-4-yl}-imidazo[1,2-a]pyridin-7-yloxy)-propan-1-ol]

- efflux ratio at 2 h, 1 μM [1]: > 50
- IC50 [2]: 5.1 nM
- IC50 [3]: 61 nM
Structure (SMILES): CN1CC(COc2ccn3c(-c4cc(NCc5ccc(-c6cnn(C)c6)cc5)ncn4)cnc3c2)C1 [A144, N-{[4-(1-methyl-1H-pyrazol-4-yl)phenyl]methyl}-6-{7-[(1-methylazetidin-3-yl)methoxy]imidazo[1,2-a]pyridin-3-yl}pyrimidin-4-amine]

- efflux ratio at 2 h, 1 μM [1]: < 15
- IC50 [2]: 13 nM
- IC50 [3]: 140 nM
Structure (SMILES): COc1ccn2c(-c3cc(OCc4ccc(-c5cnn(C)c5)cc4)ncn3)cnc2c1 [A158, 7-methoxy-3-{6-[4-(1-methyl-1H-pyrazol-4-yl)-benzyloxy]-pyrimidin-4-yl}-imidazo[1,2-a]pyridine]
